Where two headings read alike, the source gives them in different places.
Key:
[1] = Embryo-fetal development study in rabbits; assay type: in vivo
Experimental: Pafolacianine was intravenously administered at doses of, during the period of organogenesis namely, 0.015, 0.15, and 1.5 mg/kg/day from gestational day (GD) 6 to GD17 in rats (human equivalent doses (HEDs) of 0.002, 0.024 and 0.242 mg/kg/day) and 0.3, 1, and 3 mg/kg/day from GD7 to GD20 in rabbits (HEDs of 0.097, 0.323 and 0.968 mg/kg/day). […] No-Observed-Adverse-Effect-Levels were 1.5 mg/kg/day in rats and 3 mg/kg/day in rabbits.

[2] = Plasma protein binding, equilibrium dialysis, rat plasma; assay type: in vitro ADME; conditions: Sprague Dawley, read-out: mean (±SD) percentage of plasma protein bound (converted)
Experimental: The plasma protein binding of pafolacianine was studied in vitro in fresh human, Sprague Dawley rat, and Beagle dog plasma using equilibrium dialysis. Pafolacianine was introduced into plasma samples, in duplicate, resulting in a final concentration of 5 μM. The mean (±SD) percentage of plasma protein bound pafolacianine was 99.1±0.1%, 98.6±0.1%, and 93.7±1.5% for rat, dog and human, respectively. Pafolacianine was highly bound to plasma protein in all species examined.

[3] = Safety in three open label clinical studies; assay type: in vivo, human
Experimental: The safety of the disclosed compositions were evaluated in three open label clinical studies, two studies (N=150 and N=44) in patients with ovarian cancer and one study (N=100) in patients with cancer in the lung. A total of 294 patients received 0.025 mg/kg of the disclosed compositions via intravenous administration. The mean age of patients was 63.5 years; 51% were 65 years of age or older; 89% of patients were female; and 84% of patients were white.

[4] = Phase 1a pharmacokinetics in healthy volunteers, single IV administration; assay type: in vivo, human; conditions: for AUC(0-t) / Tmax / AUC(0-inf) / clearance / Cmax / half-life / Vd: human, plasma, intravenous
Excerpt: A total of 73 potentially eligible healthy volunteers gave written acknowledgement of informed consent to participate in a Phase 1a study to assess the safety and pharmacokinetics of pafolacianine versus placebo. Fifty-four were found suitable for participation, of which 30 were enrolled in the study. Twenty-four subjects were white, 1 subject was Black/African-American, 1 was Asian, 1 was mixed race and 3 were of another race.
The pharmacokinetic (PK) analysis population was defined as all subjects who were randomized and received study treatment. Of note, the drug infusion was stopped prematurely in 1 subject, and interrupted in another subject. The pharmacokinetics of pafolacianine following single IV administration of 0.025, 0.05, 0.1, or 0.2 mg/kg was determined using non-compartmental analysis; the key PK parameters are summarized in Table 7.

[5] = Partitioning into red blood cells; assay type: in vitro ADME
[6] = dose escalated 8-fold (0.025 to 0.2 mg/kg)
[7] = 0.025 mg/kg, in 20 ml 0.9% NaCl, 10- and 60-min infusion
[8] = 0.025 mg/kg, in 220 ml 5% dextrose, 60-min infusion
[9] = 0.05 mg/kg, in 220 ml 5% dextrose, 60-min infusion
[10] = 0.1 mg/kg, in 220 ml 5% dextrose, 60-min infusion
[11] = 0.2 mg/kg, in 220 ml 5% dextrose, 60-min infusion
[12] = 0.2 mg/kg, with pre-treatment of antihistamine (clemastine)

SMILES: CC1(C)C(=CC=C2CCCC(C=CC3=[N+](CCCCS(=O)(=O)[O-])c4ccc(S(=O)(=O)O)cc4C3(C)C)=C2Oc2ccc(CC(NC(=O)c3ccc(NCc4cnc5nc(N)[nH]c(=O)c5n4)cc3)C(=O)O)cc2)N(CCCCS(=O)(=O)O)c2ccc(S(=O)(=O)O)cc21 (stereo not drawn) [pafolacianine]
- Estimated systemic exposure relative to human exposure at 0.025 mg/kg (AUC comparison) ([1]; rabbit): 570 times
- maternal toxicity and embryo-fetal development toxicity ([1]; rabbits, 0.3, 1, 3 mg/kg/day IV): No significant drug-related maternal toxicity and embryo-fetal development toxicity
- No-Observed-Adverse-Effect-Level ([1]; rabbits, IV, GD7 to GD20): 3 mg/kg/day
- fraction unbound at 5 μM [2]: 0.009
- Adverse reaction: abdominal pain ([3]; 294 patients, 0.025 mg/kg IV): 2.7%
- Adverse reaction: chest discomfort ([3]; 294 patients, 0.025 mg/kg IV): 1%
- Adverse reaction: dyspepsia ([3]; 294 patients, 0.025 mg/kg IV): 1%
- Adverse reaction: flushing ([3]; 294 patients, 0.025 mg/kg IV): 1.7%
- Adverse reaction: hypersensitivity ([3]; 294 patients, 0.025 mg/kg IV): 1%
- Adverse reaction: nausea ([3]; 294 patients, 0.025 mg/kg IV): 15%
- Adverse reaction: pruritus ([3]; 294 patients, 0.025 mg/kg IV): 1%
- Adverse reaction: vomiting ([3]; 294 patients, 0.025 mg/kg IV): 5.8%
- patients with adverse reactions during the administration ([3]; 294 patients, 0.025 mg/kg IV): 2.4%
- time of occurrence of reactions after start of infusion ([3]; typically): ≤ 15 min
- increase in AUClast [4, 6]: ~22 fold
- increase in Cmax [4, 6]: ~12 fold
- AUC(0-t) [4, 7]: 63.4 ng·h/mL
- Tmax [4, 7]: 0.75 h
- AUC(0-inf) ([4]; 0.025 mg/kg, in 20 ml 0.9% NaCl, 10- and 60-min infusion, read-out: AUC0-inf): 66.4 ng·h/mL
- clearance ([4]; 0.025 mg/kg, in 20 ml 0.9% NaCl, 10- and 60-min infusion, read-out: CL (converted)): 443 mL/min
- Cmax ([4]; 0.025 mg/kg, in 20 ml 0.9% NaCl, 10- and 60-min infusion, read-out: Cmax): 93.3 ng/mL
- half-life ([4]; 0.025 mg/kg, in 20 ml 0.9% NaCl, 10- and 60-min infusion, read-out: T1/2 (converted)): 0.416 h
- Vd ([4]; 0.025 mg/kg, in 20 ml 0.9% NaCl, 10- and 60-min infusion, read-out: Vz): 15.9 L
- AUC(0-t) [4, 8]: 61.6 ng·h/mL
- Tmax [4, 8]: 0.95 h
- AUC(0-inf) ([4]; 0.025 mg/kg, in 220 ml 5% dextrose, 60-min infusion, read-out: AUC0-inf): 63.6 ng·h/mL
- clearance ([4]; 0.025 mg/kg, in 220 ml 5% dextrose, 60-min infusion, read-out: CL (converted)): 477 mL/min
- Cmax ([4]; 0.025 mg/kg, in 220 ml 5% dextrose, 60-min infusion, read-out: Cmax): 59.1 ng/mL
- half-life ([4]; 0.025 mg/kg, in 220 ml 5% dextrose, 60-min infusion, read-out: T1/2 (converted)): 0.438 h
- Vd ([4]; 0.025 mg/kg, in 220 ml 5% dextrose, 60-min infusion, read-out: Vz): 17.1 L
- AUC(0-inf) ([4]; 0.025 mg/kg, read-out: area under the plasma concentration-time curve to infinity (AUCinf)): 63.6 ± 12.6 ng·h/mL
- half-life ([4]; 0.025 mg/kg, read-out: elimination half-life (converted)): 0.44 ± 0.23 h
- Cmax ([4]; 0.025 mg/kg, read-out: mean maximum plasma concentration (Cmax)): 59.1 ± 5.94 ng/mL
- clearance ([4]; 0.025 mg/kg, read-out: mean plasma clearance (converted)): 477 mL/min
- AUC(0-t) [4, 9]: 250 ng·h/mL
- Tmax [4, 9]: 1.03 h
- AUC(0-inf) ([4]; 0.05 mg/kg, in 220 ml 5% dextrose, 60-min infusion, read-out: AUC0-inf): 258 ng·h/mL
- clearance ([4]; 0.05 mg/kg, in 220 ml 5% dextrose, 60-min infusion, read-out: CL (converted)): 245 mL/min
- Cmax ([4]; 0.05 mg/kg, in 220 ml 5% dextrose, 60-min infusion, read-out: Cmax): 184 ng/mL
- half-life ([4]; 0.05 mg/kg, in 220 ml 5% dextrose, 60-min infusion, read-out: T1/2 (converted)): 0.931 h
- Vd ([4]; 0.05 mg/kg, in 220 ml 5% dextrose, 60-min infusion, read-out: Vz): 19.2 L
- AUC(0-t) [4, 10]: 785 ng·h/mL
- Tmax [4, 10]: 1.02 h
- AUC(0-inf) ([4]; 0.1 mg/kg, in 220 ml 5% dextrose, 60-min infusion, read-out: AUC0-inf): 799 ng·h/mL
- clearance ([4]; 0.1 mg/kg, in 220 ml 5% dextrose, 60-min infusion, read-out: CL (converted)): 161 mL/min
- Cmax ([4]; 0.1 mg/kg, in 220 ml 5% dextrose, 60-min infusion, read-out: Cmax): 450 ng/mL
- half-life ([4]; 0.1 mg/kg, in 220 ml 5% dextrose, 60-min infusion, read-out: T1/2 (converted)): 1.64 h
- Vd ([4]; 0.1 mg/kg, in 220 ml 5% dextrose, 60-min infusion, read-out: Vz): 22.2 L
- AUC(0-t) [4, 11]: 1310 ng·h/mL
- Tmax [4, 11]: 1.09 h
- AUC(0-inf) ([4]; 0.2 mg/kg, in 220 ml 5% dextrose, 60-min infusion, read-out: AUC0-inf): 1340 ng·h/mL
- clearance ([4]; 0.2 mg/kg, in 220 ml 5% dextrose, 60-min infusion, read-out: CL (converted)): 167 mL/min
- Cmax ([4]; 0.2 mg/kg, in 220 ml 5% dextrose, 60-min infusion, read-out: Cmax): 640 ng/mL
- half-life ([4]; 0.2 mg/kg, in 220 ml 5% dextrose, 60-min infusion, read-out: T1/2 (converted)): 2.66 h
- Vd ([4]; 0.2 mg/kg, in 220 ml 5% dextrose, 60-min infusion, read-out: Vz): 38.8 L
- AUC(0-t) [4, 12]: 1400 ng·h/mL
- Tmax [4, 12]: 1 h
- AUC(0-inf) ([4]; 0.2 mg/kg, with pre-treatment of antihistamine (clemastine), read-out: AUC0-inf): 1430 ng·h/mL
- clearance ([4]; 0.2 mg/kg, with pre-treatment of antihistamine (clemastine), read-out: CL (converted)): 170 mL/min
- Cmax ([4]; 0.2 mg/kg, with pre-treatment of antihistamine (clemastine), read-out: Cmax): 765 ng/mL
- half-life ([4]; 0.2 mg/kg, with pre-treatment of antihistamine (clemastine), read-out: T1/2 (converted)): 2.4 h
- Vd ([4]; 0.2 mg/kg, with pre-treatment of antihistamine (clemastine), read-out: Vz): 36 L
- clearance ([4]; 0.025 to 0.2 mg/kg, read-out: clearance over the dose range): 167 to 483 mL/min
- half-life ([4]; 0.025 to 0.2 mg/kg, read-out: half-life values range): 0.4 to 2.7 h
- Vd ([4]; read-out: mean volume of distribution (Vz)): 17.1 ± 5.99 L
- partitioning into red blood cells [5]: No notable partitioning

From US11986540B2, “Compositions including pafolacianine for the identification of malignant lesions” (ON TARGET LABORATORIES, LLC., priority 2022, dated 2024)
